pIC50, pKd, pKi: −log10 of the molar value.
Tests used:
[1] = molecular target: AP2-associated protein kinase 1 (Homo sapiens, UniProt Q2M2I8); assay: Affinity Biochemical interaction (Competition binding assay) EUB0000166b AAK1; parameters: mode of action Negative control for SGC-AAK1-1, recommended concentration 1 uM
[2] = molecular target: BMP-2-inducible protein kinase (Homo sapiens, UniProt Q9NSY1); assay: Affinity Biochemical interaction (Competition binding assay) EUB0000166b BMP2K; parameters: mode of action Negative control for SGC-AAK1-1, recommended concentration 1 uM
[3] = molecular target: Peripheral plasma membrane protein CASK (Homo sapiens, UniProt O14936); assay: Affinity Biochemical interaction (Isothermal titration calorimetry (ITC)) EUB0000723a CASK; parameters: mode of action Inhibitor, recommended concentration 1 uM
Fatty acid synthase = Fatty acid synthase (Homo sapiens, UniProt P49327); assay: Affinity Biochemical interaction (Human FAS enzyme assay (measuring consumption of NADPH)) EUB0000738a FASN; parameters: mode of action Negative control for BI 99179, recommended concentration 1 uM
Cannabinoid receptor 1 = Cannabinoid receptor 1 (Homo sapiens, UniProt P21554); assay: Affinity Biochemical interaction (Radioligand binding assay (CNR1, inverse agonism)) EUB0000316b CNR1; parameters: mode of action Negative control for MRL-650, recommended concentration 1 uM
Ephrin type-B receptor 4 = Ephrin type-B receptor 4 (Homo sapiens, UniProt P54760); assay: Affinity Biochemical interaction (Microscale thermophoresis (MST) assay) EUB0000143b EPHB4; parameters: mode of action Inhibitor, recommended concentration 100 nM
[4] = molecular target: Tyrosine-protein kinase Mer (Homo sapiens, UniProt Q12866)
Angiopoietin-1 receptor = Angiopoietin-1 receptor (Homo sapiens, UniProt Q02763); assay: Affinity Biochemical interaction (KdELECT (DiscoverX)) EUB0000703a TEK; parameters: mode of action Negative control for BAY-826, recommended concentration 100 nM
[5] = molecular target: Alpha-1D adrenergic receptor (Homo sapiens, UniProt P25100); assay: Affinity Biochemical interaction (Binding assay) EUB0000300bCl ADRA1D; parameters: mode of action Antagonist, recommended concentration 1 uM
Integrin alpha-L = Integrin alpha-L (Homo sapiens, UniProt P20701); assay: Affinity Biochemical interaction (ITGAL binding assay (inhibition of LFA-1 binding to ICAM-1)) EUB0000549a ITGAL; parameters: mode of action Negative control for BI-1950, recommended concentration 100 nM
[6] = Affinity Biochemical interaction (FLIPR assay) EUB0000337aCl P2RY14
[7] = molecular target: Dual specificity protein kinase CLK1 (Homo sapiens, UniProt P49759); assay: Affinity Biochemical interaction (NanoBRET assay (in HEK293T cells)) EUB0000009b CLK1; assay type: cell-based; parameters: mode of action Negative control for MU1210, recommended concentration 1 uM
[8] = molecular target: Dual specificity protein kinase CLK2 (Homo sapiens, UniProt P49760); assay: Affinity Biochemical interaction (NanoBRET assay (in HEK293T cells)) EUB0000009b CLK2; assay type: cell-based; parameters: mode of action Negative control for MU1210, recommended concentration 1 uM
[9] = molecular target: Dual specificity protein kinase CLK4 (Homo sapiens, UniProt Q9HAZ1); assay: Affinity Biochemical interaction (NanoBRET assay (in HEK293T cells)) EUB0000009b CLK4; assay type: cell-based; parameters: mode of action Negative control for MU1210, recommended concentration 1 uM
[10] = molecular target: Protein farnesyltransferase subunit beta (Homo sapiens, UniProt P49356); assay: Affinity Biochemical interaction (Scintillation proximity assay (SPA)) EUB0000289c FNTB; parameters: mode of action Inhibitor, recommended concentration 1 uM
[11] = molecular target: Transient receptor potential cation channel subfamily A member 1 (Homo sapiens, UniProt O75762); assay: Affinity Biochemical interaction (FLIPR-based Ca2+ assay (activated by 30 µM AITC)) EUB0000308b TRPA1; parameters: mode of action Antagonist, recommended concentration 1 uM
[12] = molecular target: Nucleosome-remodeling factor subunit BPTF (Homo sapiens, UniProt Q12830); assay: Affinity Biochemical interaction (BioLayer Interferometry assay (BLI)) EUB0000254b BPTF; parameters: mode of action Negative control for NVS-BPTF-1, recommended concentration 1 uM
Protein AF-9 = molecular target: T1, Protein AF-9 (Homo sapiens, UniProt P42568)
T1 sequence (P42568 whole entry): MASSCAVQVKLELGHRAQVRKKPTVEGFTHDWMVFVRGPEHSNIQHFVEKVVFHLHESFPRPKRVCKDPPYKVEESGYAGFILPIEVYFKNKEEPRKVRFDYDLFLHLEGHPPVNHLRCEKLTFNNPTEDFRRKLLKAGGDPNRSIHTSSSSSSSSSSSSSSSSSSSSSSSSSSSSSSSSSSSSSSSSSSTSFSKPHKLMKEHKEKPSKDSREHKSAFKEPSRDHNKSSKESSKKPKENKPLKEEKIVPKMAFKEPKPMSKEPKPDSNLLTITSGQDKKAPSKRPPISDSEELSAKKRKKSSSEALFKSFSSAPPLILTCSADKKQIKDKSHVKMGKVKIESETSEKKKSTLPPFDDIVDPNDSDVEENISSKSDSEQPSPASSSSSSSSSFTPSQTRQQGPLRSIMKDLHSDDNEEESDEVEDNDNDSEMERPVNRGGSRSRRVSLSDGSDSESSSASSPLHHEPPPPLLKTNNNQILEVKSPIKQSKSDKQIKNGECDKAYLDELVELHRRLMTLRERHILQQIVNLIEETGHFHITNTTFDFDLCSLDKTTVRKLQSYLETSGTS

[13] = molecular target: Bifunctional epoxide hydrolase 2 (Homo sapiens, UniProt P34913); assay: Affinity Biochemical interaction (Human soluble epoxide hydrolase inhibition) EUB0000541a EPHX2; parameters: mode of action Negative control for BI-1935, recommended concentration 100 nM
[14] = molecular target: Epithelial discoidin domain-containing receptor 1 (Homo sapiens, UniProt Q08345); assay: Affinity Biochemical interaction (Radiometric assay (10 µM ATP, Reaction Biology)) EUB0000156b DDR1; parameters: mode of action Negative control for DDR-TRK-1 (D2202-1), recommended concentration 1 uM
[15] = molecular target: Discoidin domain-containing receptor 2 (Homo sapiens, UniProt Q16832); assay: Affinity Biochemical interaction (Radiometric assay (10 µM ATP, Reaction Biology)) EUB0000156b DDR2; parameters: mode of action Negative control for DDR-TRK-1 (D2202-1), recommended concentration 1 uM
[16] = molecular target: High affinity nerve growth factor receptor (Homo sapiens, UniProt P04629); assay: Affinity Biochemical interaction (Radiometric assay (10 µM ATP, Reaction Biology)) EUB0000156b NTRK1; parameters: mode of action Negative control for DDR-TRK-1 (D2202-1), recommended concentration 1 uM
[17] = molecular target: NT-3 growth factor receptor (Homo sapiens, UniProt Q16288); assay: Affinity Biochemical interaction (Radiometric assay (10 µM ATP, Reaction Biology)) EUB0000156b NTRK3; parameters: mode of action Negative control for DDR-TRK-1 (D2202-1), recommended concentration 1 uM

Chain of BMP-2-inducible protein kinase (Q9NSY1 whole entry, the tested form may be a part): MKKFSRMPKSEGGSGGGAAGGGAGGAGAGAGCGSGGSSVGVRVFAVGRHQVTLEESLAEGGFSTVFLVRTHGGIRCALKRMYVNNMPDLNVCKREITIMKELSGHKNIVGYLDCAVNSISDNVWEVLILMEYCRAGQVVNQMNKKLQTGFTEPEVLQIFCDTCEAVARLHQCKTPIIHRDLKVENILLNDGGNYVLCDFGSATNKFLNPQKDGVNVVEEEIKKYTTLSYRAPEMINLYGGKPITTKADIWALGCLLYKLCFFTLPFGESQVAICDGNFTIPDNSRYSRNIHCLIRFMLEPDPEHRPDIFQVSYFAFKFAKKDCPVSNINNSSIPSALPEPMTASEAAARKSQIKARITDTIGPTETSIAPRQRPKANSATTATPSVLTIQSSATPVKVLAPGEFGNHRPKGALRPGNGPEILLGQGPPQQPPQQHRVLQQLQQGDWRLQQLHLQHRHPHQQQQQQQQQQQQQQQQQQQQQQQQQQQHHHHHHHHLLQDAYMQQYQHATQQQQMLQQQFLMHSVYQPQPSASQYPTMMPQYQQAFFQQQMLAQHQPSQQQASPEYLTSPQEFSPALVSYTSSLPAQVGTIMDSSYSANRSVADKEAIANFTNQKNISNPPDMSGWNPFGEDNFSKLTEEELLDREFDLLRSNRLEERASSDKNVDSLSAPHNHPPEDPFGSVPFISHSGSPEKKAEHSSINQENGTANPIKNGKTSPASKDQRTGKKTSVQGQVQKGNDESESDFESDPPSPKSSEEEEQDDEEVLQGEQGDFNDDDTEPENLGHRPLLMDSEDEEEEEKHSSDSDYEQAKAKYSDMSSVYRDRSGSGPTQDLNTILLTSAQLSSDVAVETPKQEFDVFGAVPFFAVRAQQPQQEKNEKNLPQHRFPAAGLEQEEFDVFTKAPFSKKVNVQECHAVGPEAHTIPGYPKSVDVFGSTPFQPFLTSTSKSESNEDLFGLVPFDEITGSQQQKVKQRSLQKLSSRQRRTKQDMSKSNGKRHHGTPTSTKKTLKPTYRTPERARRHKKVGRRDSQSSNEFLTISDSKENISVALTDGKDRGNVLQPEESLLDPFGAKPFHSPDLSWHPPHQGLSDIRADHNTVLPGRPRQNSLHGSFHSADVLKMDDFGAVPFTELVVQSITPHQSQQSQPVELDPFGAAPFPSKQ
Chain of Tyrosine-protein kinase Mer (Q12866 whole entry): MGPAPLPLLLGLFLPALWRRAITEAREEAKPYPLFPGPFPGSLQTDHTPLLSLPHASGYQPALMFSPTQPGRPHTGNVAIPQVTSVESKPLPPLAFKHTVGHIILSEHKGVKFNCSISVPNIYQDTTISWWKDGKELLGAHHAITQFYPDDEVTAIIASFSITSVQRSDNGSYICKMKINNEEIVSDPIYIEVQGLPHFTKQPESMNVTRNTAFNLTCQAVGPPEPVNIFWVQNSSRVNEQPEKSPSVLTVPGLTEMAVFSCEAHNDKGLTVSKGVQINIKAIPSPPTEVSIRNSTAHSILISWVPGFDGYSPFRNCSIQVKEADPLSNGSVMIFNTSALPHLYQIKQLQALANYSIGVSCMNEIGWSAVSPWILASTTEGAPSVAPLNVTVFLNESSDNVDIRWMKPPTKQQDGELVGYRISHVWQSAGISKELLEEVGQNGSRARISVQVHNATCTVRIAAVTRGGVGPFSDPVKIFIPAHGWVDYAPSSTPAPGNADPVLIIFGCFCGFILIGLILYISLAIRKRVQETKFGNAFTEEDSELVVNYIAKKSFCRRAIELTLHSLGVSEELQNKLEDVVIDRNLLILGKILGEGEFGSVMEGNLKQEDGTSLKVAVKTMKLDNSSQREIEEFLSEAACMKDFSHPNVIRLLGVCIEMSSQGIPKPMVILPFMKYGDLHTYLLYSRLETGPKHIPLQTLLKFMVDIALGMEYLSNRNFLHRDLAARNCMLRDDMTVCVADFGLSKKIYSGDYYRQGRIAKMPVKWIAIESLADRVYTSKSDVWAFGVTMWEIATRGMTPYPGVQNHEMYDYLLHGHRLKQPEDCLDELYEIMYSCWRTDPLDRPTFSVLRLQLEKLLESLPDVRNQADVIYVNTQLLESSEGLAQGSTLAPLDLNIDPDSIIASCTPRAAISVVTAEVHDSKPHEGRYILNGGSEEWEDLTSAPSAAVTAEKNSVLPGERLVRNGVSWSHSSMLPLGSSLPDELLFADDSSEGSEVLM
Chain of Discoidin domain-containing receptor 2 (Q16832 whole entry, the tested form may be a part): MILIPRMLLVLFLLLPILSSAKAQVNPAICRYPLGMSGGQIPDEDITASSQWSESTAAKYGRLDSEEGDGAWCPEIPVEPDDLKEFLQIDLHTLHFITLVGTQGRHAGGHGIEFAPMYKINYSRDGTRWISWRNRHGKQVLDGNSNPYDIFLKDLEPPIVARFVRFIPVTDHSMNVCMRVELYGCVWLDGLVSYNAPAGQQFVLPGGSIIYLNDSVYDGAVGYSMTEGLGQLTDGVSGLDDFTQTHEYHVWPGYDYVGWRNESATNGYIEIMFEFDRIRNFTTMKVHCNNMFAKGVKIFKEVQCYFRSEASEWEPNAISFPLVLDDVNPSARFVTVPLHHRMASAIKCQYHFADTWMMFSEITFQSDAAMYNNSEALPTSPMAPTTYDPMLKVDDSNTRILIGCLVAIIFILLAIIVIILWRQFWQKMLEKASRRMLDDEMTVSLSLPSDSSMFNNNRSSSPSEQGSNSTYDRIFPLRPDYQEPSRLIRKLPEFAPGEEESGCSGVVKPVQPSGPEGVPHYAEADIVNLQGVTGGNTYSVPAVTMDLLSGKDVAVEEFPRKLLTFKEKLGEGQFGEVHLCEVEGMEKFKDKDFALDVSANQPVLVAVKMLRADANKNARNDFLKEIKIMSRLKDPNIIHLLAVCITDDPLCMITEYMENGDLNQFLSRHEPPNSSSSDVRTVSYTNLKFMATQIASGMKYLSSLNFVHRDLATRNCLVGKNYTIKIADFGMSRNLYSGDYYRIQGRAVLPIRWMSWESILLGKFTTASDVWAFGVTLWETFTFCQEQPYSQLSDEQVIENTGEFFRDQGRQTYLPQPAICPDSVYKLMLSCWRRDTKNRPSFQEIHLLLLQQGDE
Chain of Integrin alpha-L (P20701 whole entry): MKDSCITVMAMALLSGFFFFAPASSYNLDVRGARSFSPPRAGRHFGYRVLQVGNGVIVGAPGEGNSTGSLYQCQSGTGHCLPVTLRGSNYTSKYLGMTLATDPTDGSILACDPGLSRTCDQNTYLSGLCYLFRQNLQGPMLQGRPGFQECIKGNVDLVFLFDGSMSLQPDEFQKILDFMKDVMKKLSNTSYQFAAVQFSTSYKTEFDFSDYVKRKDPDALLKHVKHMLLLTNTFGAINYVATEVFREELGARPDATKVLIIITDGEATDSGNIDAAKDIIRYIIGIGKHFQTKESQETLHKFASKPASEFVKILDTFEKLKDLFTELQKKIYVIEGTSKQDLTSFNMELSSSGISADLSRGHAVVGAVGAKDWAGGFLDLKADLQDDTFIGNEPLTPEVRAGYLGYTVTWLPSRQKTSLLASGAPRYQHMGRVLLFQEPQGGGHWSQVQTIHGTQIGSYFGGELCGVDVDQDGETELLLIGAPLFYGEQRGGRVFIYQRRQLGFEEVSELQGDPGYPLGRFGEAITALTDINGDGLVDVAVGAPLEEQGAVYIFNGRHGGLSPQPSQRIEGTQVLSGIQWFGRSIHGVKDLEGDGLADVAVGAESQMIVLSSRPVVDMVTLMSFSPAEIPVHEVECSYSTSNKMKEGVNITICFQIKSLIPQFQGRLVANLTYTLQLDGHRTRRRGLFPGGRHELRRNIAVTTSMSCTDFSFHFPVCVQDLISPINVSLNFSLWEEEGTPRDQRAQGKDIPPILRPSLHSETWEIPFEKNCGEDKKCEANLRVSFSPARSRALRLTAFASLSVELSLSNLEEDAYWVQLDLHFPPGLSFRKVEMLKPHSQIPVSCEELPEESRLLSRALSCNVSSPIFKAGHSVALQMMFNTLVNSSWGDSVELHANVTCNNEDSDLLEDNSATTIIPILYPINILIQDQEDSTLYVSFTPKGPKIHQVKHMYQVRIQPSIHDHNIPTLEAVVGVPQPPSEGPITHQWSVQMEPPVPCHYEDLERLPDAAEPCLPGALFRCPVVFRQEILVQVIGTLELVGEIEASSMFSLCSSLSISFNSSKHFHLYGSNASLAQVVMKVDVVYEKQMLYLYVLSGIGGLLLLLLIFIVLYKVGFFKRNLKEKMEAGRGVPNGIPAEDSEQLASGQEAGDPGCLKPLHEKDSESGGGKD
Chain of Cannabinoid receptor 1 (P21554 whole entry): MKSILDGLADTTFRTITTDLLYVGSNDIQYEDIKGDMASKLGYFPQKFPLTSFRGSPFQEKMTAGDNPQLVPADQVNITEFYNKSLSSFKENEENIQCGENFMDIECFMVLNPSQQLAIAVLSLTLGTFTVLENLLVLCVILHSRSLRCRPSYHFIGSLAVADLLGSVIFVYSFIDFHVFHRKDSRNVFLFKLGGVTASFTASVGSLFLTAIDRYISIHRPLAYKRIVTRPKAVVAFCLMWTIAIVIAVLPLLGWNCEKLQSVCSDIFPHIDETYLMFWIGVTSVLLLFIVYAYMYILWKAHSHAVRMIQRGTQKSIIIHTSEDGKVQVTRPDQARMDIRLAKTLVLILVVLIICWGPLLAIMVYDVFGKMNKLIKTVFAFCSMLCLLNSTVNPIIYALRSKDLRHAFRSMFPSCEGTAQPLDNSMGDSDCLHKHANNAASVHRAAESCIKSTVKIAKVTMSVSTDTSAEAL
Chain of Protein farnesyltransferase subunit beta (P49356 whole entry): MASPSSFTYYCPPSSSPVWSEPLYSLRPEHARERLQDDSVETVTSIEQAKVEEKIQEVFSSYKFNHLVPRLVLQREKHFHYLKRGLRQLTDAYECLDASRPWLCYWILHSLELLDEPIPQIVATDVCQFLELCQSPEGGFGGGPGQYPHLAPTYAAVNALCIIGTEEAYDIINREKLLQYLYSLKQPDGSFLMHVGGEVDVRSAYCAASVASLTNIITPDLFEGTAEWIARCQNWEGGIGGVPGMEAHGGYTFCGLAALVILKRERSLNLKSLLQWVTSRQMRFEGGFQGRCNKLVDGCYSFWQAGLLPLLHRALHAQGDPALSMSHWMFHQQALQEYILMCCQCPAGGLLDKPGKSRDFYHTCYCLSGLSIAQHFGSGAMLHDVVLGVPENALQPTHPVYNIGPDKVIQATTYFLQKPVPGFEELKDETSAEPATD

CC(C)C(=O)Nc1n[nH]c2cc(-c3cccc(NS(=O)(=O)C4CC4)c3)ccc12 gave a pKd [1] of 5.06 and a pKd [2] of under 5.00.

In the case of O=C(NCCCN1CCOC1=O)c1cnc(NCc2cc(Br)ccc2Br)nc1NC1CCCC1, the pKd [3] was 7.66.

CCC(=O)N[C@@H]1CC[C@H](C(=O)N(C)c2ccc(-c3nc4ccccc4o3)cc2)C1 [BI 99990] showed a pIC50 (Fatty acid synthase) of under 5.52.

Compound CC(=O)c1c(NS(C)(=O)=O)c2cc(-c3ccc(Cl)cc3)c(-c3ccc(Cl)cc3Cl)nc2n(C)c1=O [MRL-CB1-NC] has a pIC50 (Cannabinoid receptor 1) of 7.49.

With Cc1ccc(C(=O)Nc2cccc(C(F)(F)F)c2)cc1Nc1nc(-c2cccnc2)nc2c1cnn2C the pIC50 (Ephrin type-B receptor 4) was 8.22.

Compound CCOc1cn(-c2ccc(F)cc2C)nc1C(=O)Nc1ccc(Oc2ccnc3cc(OC)c(OC)cc23)c(F)c1 has a pIC50 [4] of 8.30.

Cc1cc(NC(=O)c2cccc(S(F)(F)(F)(F)F)c2)cc(-n2ccn3nc(-c4cccnc4)cc23)c1 [BAY-309] showed a pKd (Angiopoietin-1 receptor) of under 4.70.

C[C@@H](c1cccc(CN)c1)n1cc(Cl)cc(C(N)=O)c1=N gave a pKi [5] of 8.80.

Compound C[C@@]1(Cc2ccc(C#N)cc2)C(=O)N(c2cc(Cl)cc(Cl)c2)c2ncc(C(=O)NC3(c4nc(C5CCC5)no4)CC3)n21 [BI 9446] has a pKd (Integrin alpha-L) of under 6.00.

Cc1c(C(=O)O)cc(-c2ccc(C3CCNCC3)cc2)c2ccc(-c3ccc(C(F)(F)F)cc3)cc12 gave a pIC50 [6] of 5.36.

Compound Cn1cc(-c2ccc3occ(-c4ccccc4-c4ccccc4)c3n2)cn1 has a pKi [7] of under 5.00, a pKi [8] of under 5.00 and a pKi [9] of under 5.00.

Compound Cn1cncc1[C@](O)(COc1ccc(C#N)cc1-c1ccc(OC(F)(F)F)cc1)c1ccc(C#N)cc1 [ABT-100] has a pIC50 [10] of 10.30.

With Clc1cccc(-c2nnnn2Cc2cccnc2)c1Cl the pIC50 [11] was 7.17.

With Cc1c(Nc2ccc(S(=O)(=O)N3CCN(C)CC3)cc2F)nc2ccc(Nc3cnn(C4CC4)c3)cn2c1=O the pKd [12] was 5.78.

CN(C)C(=O)c1ccc(-c2cc(C(=O)N[C@@H]3CCc4ccccc43)no2)cc1O showed a pIC50 (Protein AF-9) of 6.80.

For O=C(Nc1ccc(-n2nc(-c3cccnc3)cc2C(F)(F)F)cn1)c1ccc(-c2ccccc2)c(F)c1 [BI 2049], the pIC50 [13] was under 5.52.

Compound CN1CCN(Cc2cc(NC(=O)c3ccc4c(c3)CN(c3ccccc3)CC4)cc(C(F)(F)F)c2)CC1 has a pIC50 [14] of 5.76, a pIC50 [15] of under 5.00 and a pIC50 [16] of 5.20. It also gave a pIC50 [17] of 5.09.

Reference: ChEMBL document CHEMBL5210307, “Affinity Biochemical Literature for EUbOPEN Chemogenomics Library wave 3” (2023)
